From PubChem BioAssay (NCI)
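The concentration for 50% growth inhibition is given as GI50. TGI: total growth inhibition.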

How the values were obtained:
Assay in all cases: DTP human tumour cell line panel, 384-well format
786-0 renal = system: 786-0 renal
A498 renal = system: A498 renal
A549 NSCLC = system: A549 NSCLC
ACHN renal = system: ACHN renal
BT-549 breast = system: BT-549 breast
CAKI-1 renal = system: CAKI-1 renal
CCRF-CEM leukemia = system: CCRF-CEM leukemia
COLO 205 colon = system: COLO 205 colon
DU-145 prostate = system: DU-145 prostate
EKVX NSCLC = system: EKVX NSCLC
HCC-2998 colon = system: HCC-2998 colon
HCT-15 colon = system: HCT-15 colon
HL-60(TB) leukemia = system: HL-60(TB) leukemia
HOP-62 NSCLC = system: HOP-62 NSCLC
HOP-92 NSCLC = system: HOP-92 NSCLC
HS 578T breast = system: HS 578T breast
HT29 colon = system: HT29 colon
IGROV1 ovarian = system: IGROV1 ovarian
KM12 colon = system: KM12 colon
M14 melanoma = system: M14 melanoma
MALME-3M melanoma = system: MALME-3M melanoma
MCF7 breast = system: MCF7 breast
MDA-MB-231 breast = system: MDA-MB-231 breast
MDA-MB-435 melanoma = system: MDA-MB-435 melanoma
MDA-MB-468 breast = system: MDA-MB-468 breast
MOLT-4 leukemia = system: MOLT-4 leukemia
NCI-H226 lung = system: NCI-H226 lung
NCI-H23 lung = system: NCI-H23 lung
NCI-H322M lung = system: NCI-H322M lung
NCI-H460 NSCLC = system: NCI-H460 NSCLC
NCI-H522 lung = system: NCI-H522 lung
NCI/ADR-RES ovarian = system: NCI/ADR-RES ovarian
OVCAR-3 ovarian = system: OVCAR-3 ovarian
OVCAR-4 ovarian = system: OVCAR-4 ovarian
OVCAR-5 ovarian = system: OVCAR-5 ovarian
OVCAR-8 ovarian = system: OVCAR-8 ovarian
PC-3 prostate = system: PC-3 prostate
RPMI-8226 leukemia = system: RPMI-8226 leukemia
RXF 393 renal = system: RXF 393 renal
SF-268 CNS = system: SF-268 CNS
SF-295 CNS = system: SF-295 CNS
SF-539 CNS = system: SF-539 CNS
SK-MEL-2 melanoma = system: SK-MEL-2 melanoma
SK-MEL-28 melanoma = system: SK-MEL-28 melanoma
SK-MEL-5 melanoma = system: SK-MEL-5 melanoma
SK-OV-3 ovarian = system: SK-OV-3 ovarian
SNB-19 CNS = system: SNB-19 CNS
SNB-75 CNS = system: SNB-75 CNS
SR leukemia = system: SR leukemia
SW-620 colon = system: SW-620 colon
T-47D breast = system: T-47D breast
TK-10 renal = system: TK-10 renal
U251 glioblastoma = system: U251 glioblastoma
UACC-257 melanoma = system: UACC-257 melanoma
UACC-62 melanoma = system: UACC-62 melanoma

Compound: N#C[C@@H]1C(n2ccc(N)nc2=O)O[C@H](CO)[C@H]1O (some centres undefined)
- GI50 (786-0 renal): 418 nM
- TGI (786-0 renal): 46.8 µM
- GI50 (A498 renal): 688 nM
- TGI (A498 renal): 14.4 µM
- GI50 (A549 NSCLC): 1250 nM
- TGI (A549 NSCLC): 71 µM
- GI50 (ACHN renal): 14.5 µM
- TGI (ACHN renal): 35.6 µM
- GI50 (BT-549 breast): 3.56 µM
- TGI (BT-549 breast): > 100 µM
- GI50 (CAKI-1 renal): 20 µM
- TGI (CAKI-1 renal): > 100 µM
- GI50 (CCRF-CEM leukemia): 27.5 nM
- TGI (CCRF-CEM leukemia): 125 nM
- GI50 (COLO 205 colon): 2280 nM
- TGI (COLO 205 colon): 17.7 µM
- GI50 (DU-145 prostate): 540 nM
- TGI (DU-145 prostate): 35.3 µM
- GI50 (EKVX NSCLC): > 100 µM
- TGI (EKVX NSCLC): > 100 µM
- GI50 (HCC-2998 colon): 893 nM
- TGI (HCC-2998 colon): 18.4 µM
- GI50 (HCT-15 colon): 9.45 µM
- TGI (HCT-15 colon): > 100 µM
- GI50 (HL-60(TB) leukemia): 315 nM
- TGI (HL-60(TB) leukemia): 728 nM
- GI50 (HOP-62 NSCLC): 340 nM
- TGI (HOP-62 NSCLC): 16.7 µM
- GI50 (HOP-92 NSCLC): 3.17 µM
- TGI (HOP-92 NSCLC): 93.8 µM
- GI50 (HS 578T breast): 2010 nM
- TGI (HS 578T breast): > 100 µM
- GI50 (HT29 colon): > 100 µM
- TGI (HT29 colon): > 100 µM
- GI50 (IGROV1 ovarian): > 100 µM
- TGI (IGROV1 ovarian): > 100 µM
- GI50 (KM12 colon): 8.14 µM
- TGI (KM12 colon): > 100 µM
- GI50 (M14 melanoma): 543 nM
- TGI (M14 melanoma): 4.47 µM
- GI50 (MALME-3M melanoma): 1210 nM
- TGI (MALME-3M melanoma): 7.34 µM
- GI50 (MCF7 breast): 1580 nM
- TGI (MCF7 breast): > 100 µM
- GI50 (MDA-MB-231 breast): 17.1 µM
- TGI (MDA-MB-231 breast): > 100 µM
- GI50 (MDA-MB-435 melanoma): 85 µM
- TGI (MDA-MB-435 melanoma): > 100 µM
- GI50 (MDA-MB-468 breast): 314 nM
- TGI (MDA-MB-468 breast): 824 nM
- TGI (MOLT-4 leukemia): 14.1 nM
- GI50 (NCI-H226 lung): 3.7 µM
- TGI (NCI-H226 lung): 32.4 µM
- GI50 (NCI-H23 lung): 569 nM
- TGI (NCI-H23 lung): 12.2 µM
- GI50 (NCI-H322M lung): 45.8 µM
- TGI (NCI-H322M lung): > 100 µM
- GI50 (NCI-H460 NSCLC): 283 nM
- TGI (NCI-H460 NSCLC): 10.5 µM
- GI50 (NCI-H522 lung): 2030 nM
- TGI (NCI-H522 lung): 79.6 µM
- GI50 (NCI/ADR-RES ovarian): 6.95 µM
- TGI (NCI/ADR-RES ovarian): 32.1 µM
- GI50 (OVCAR-3 ovarian): 13.9 µM
- TGI (OVCAR-3 ovarian): > 100 µM
- GI50 (OVCAR-4 ovarian): > 100 µM
- TGI (OVCAR-4 ovarian): > 100 µM
- GI50 (OVCAR-5 ovarian): 37.1 µM
- TGI (OVCAR-5 ovarian): > 100 µM
- GI50 (OVCAR-8 ovarian): 962 nM
- TGI (OVCAR-8 ovarian): 20.9 µM
- GI50 (PC-3 prostate): 36.4 µM
- TGI (PC-3 prostate): > 100 µM
- GI50 (RPMI-8226 leukemia): 6.73 µM
- TGI (RPMI-8226 leukemia): 55.9 µM
- GI50 (RXF 393 renal): 24.4 µM
- TGI (RXF 393 renal): 70.3 µM
- GI50 (SF-268 CNS): 632 nM
- TGI (SF-268 CNS): 27.7 µM
- GI50 (SF-295 CNS): 2220 nM
- TGI (SF-295 CNS): 44.8 µM
- GI50 (SF-539 CNS): 4.18 µM
- TGI (SF-539 CNS): > 100 µM
- GI50 (SK-MEL-2 melanoma): 2750 nM
- TGI (SK-MEL-2 melanoma): 7.76 µM
- GI50 (SK-MEL-28 melanoma): 2340 nM
- TGI (SK-MEL-28 melanoma): 9.71 µM
- GI50 (SK-MEL-5 melanoma): 3.52 µM
- TGI (SK-MEL-5 melanoma): 44.4 µM
- GI50 (SK-OV-3 ovarian): 1320 nM
- TGI (SK-OV-3 ovarian): 21.9 µM
- GI50 (SNB-19 CNS): 849 nM
- TGI (SNB-19 CNS): 47.4 µM
- GI50 (SNB-75 CNS): 13.8 µM
- TGI (SNB-75 CNS): 85.8 µM
- GI50 (SR leukemia): 1920 nM
- TGI (SR leukemia): 3.54 µM
- GI50 (SW-620 colon): 34.9 µM
- TGI (SW-620 colon): > 100 µM
- GI50 (T-47D breast): > 100 µM
- TGI (T-47D breast): > 100 µM
- GI50 (TK-10 renal): > 100 µM
- TGI (TK-10 renal): > 100 µM
- GI50 (U251 glioblastoma): 3.78 µM
- TGI (U251 glioblastoma): 67.7 µM
- GI50 (UACC-257 melanoma): 31.9 µM
- TGI (UACC-257 melanoma): > 100 µM
- GI50 (UACC-62 melanoma): 3.35 µM
- TGI (UACC-62 melanoma): 34.4 µM
